Measurements from publication PMC12346198 (Cancers, 2025).
Read-outs that look alike come from different tables or passages of the source.

How the values were obtained:
[1] = test system: SNU423; assay: CCK-8 cytotoxicity assay, SNU423; format: cell-based; settings: Homo sapiens, SNU-423, 72 h treatment
Procedure: (§1) The cytotoxicity of compounds was determined by the CCK-8 assay (Cell Counting Kit-8, CK04, Dojindo Molecular Technologies, Kumamoto, Japan). Cell lines were plated at 10,000 cells/well in 96-well plates and incubated overnight to allow for adherence (5% CO2, 37 °C). […] Cells were placed back in the incubator for 72 h treatment. CCK-8 reagent was added, and plates were further incubated 1–4 h as directed by the supplier’s instructions. Optical density was measured using a Biotek Synergy H1 plate reader at 450 nm. Primary hepatocytes were plated at 30,000 cells or 50,000 cells/well and maintained according to the technical information bulletin provided by the supplier. Upon treatment, maintenance media were supplemented with 10% FBS and fresh test compound for all subsequent media changes, as directed.

[2] = Single-dose IV and PO pharmacokinetics in mice; format: in vivo, male C57BL/6 mice
Procedure: The in-life study and quantitative analysis of plasma samples using LC/MS were performed at Charles River Laboratories, Inc. (Wilmington, MA, USA).

[3] = test system: Primary Male Hepatocytes; assay: CCK-8 cytotoxicity assay, primary male hepatocytes; format: cell-based; settings: 72 h treatment
Procedure: as §1

[4] = test system: SNU475; assay: CCK-8 cytotoxicity assay, SNU475; format: cell-based, human; settings: 72 h treatment
Procedure: as §1

[5] = test system: HepG2; assay: CCK-8 cytotoxicity assay, HepG2; format: cell-based, human; settings: 72 h treatment
Procedure: as §1

[6] = target: T1, AR-SV (Homo sapiens, UniProt P10275); assay: AR protein ELISA in SNU475 cells; format: cell-based; settings: 10 µM, 24 hours, AR ELISA (Figure S3A)
T1 sequence (P10275 1-628): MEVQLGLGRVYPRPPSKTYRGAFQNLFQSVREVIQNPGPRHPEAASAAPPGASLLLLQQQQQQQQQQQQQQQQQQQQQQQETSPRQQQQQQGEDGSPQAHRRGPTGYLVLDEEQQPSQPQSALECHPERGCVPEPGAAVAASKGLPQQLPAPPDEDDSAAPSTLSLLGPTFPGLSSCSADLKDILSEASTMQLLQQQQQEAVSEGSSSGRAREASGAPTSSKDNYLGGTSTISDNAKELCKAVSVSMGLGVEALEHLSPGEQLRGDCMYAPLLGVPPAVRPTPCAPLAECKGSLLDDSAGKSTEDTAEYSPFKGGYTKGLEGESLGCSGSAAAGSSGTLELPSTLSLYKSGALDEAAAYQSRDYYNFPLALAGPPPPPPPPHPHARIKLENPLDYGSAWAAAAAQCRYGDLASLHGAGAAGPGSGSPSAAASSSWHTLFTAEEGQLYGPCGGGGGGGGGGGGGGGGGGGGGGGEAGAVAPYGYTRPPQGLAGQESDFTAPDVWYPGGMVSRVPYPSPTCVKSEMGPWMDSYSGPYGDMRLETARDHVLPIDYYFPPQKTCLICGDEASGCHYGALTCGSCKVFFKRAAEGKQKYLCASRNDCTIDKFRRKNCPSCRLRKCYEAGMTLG
Procedure: (§2) Figure S3. […] (A) SNU475 cells were treated with 10 µM of each
(§3) compound for 24 hours before analysis by AR ELISA. (B ) (Left) Cellular invasion assay was performed on SNU475
(§4) Mean + SD One way ANOVA with
(§5) (Right) Cell viability was
(§6) (1 picture or pasted object on this page, not shown here)

[7] = test system: THLE-2; assay: CCK-8 cytotoxicity assay, THLE-2; format: cell-based; settings: Homo sapiens, 72 h treatment
Procedure: as §1

[8] = 40 mg/kg dose PO; listed as niclosamide; cited from earlier work
[9] = test system: SNU475 cells; assay: Cell viability under invasion assay conditions; format: cell-based, human; settings: 1 µM
Procedure: as §2, §3, §4, §5, §6

[10] = test system: SNU475 cells; assay: Cellular invasion assay, SNU475; format: cell-based, human; settings: 1 µM and 10 µM, 48 h of treatment
Procedure: The BioCoat Matrigel invasion assay was performed according to the manufacturer’s instructions (BioCoat Matrigel Invasion Chambers, 354480, Corning, Corning, NY, USA). AR-negative clones and parental lines (SNU475 and HCCLM3) were hormone-deprived in phenol red-free RPMI1640 with 5% csFBS (±Pen-Strep) for 24 h. A total of 40,000 cells were suspended in a well insert in 0.5 mL of phenol red-free medium without csFBS over a well of 0.75 mL phenol red-free medium with 5% csFBS as a chemoattractant and incubated for 24 h. Invaded cells were fixed in 4% paraformaldehyde and stained with 0.1% crystal violet in 20% methanol. Cells in 10 different and non-overlapping fields of each membrane were photographed and counted. The Fluorometric QCM™ 24-Well Cell Invasion Assay (ECM 554, MilliporeSigma, Burlington, MA, USA) was executed as per the manufacturer’s protocol using 1.25 × 10^5 cells in 250 μL of serum-free medium and incubated for 24–72 h. Following cell lysis and staining with CyQuant GR Dye, fluorescence was measured in a plate reader using a 480/520 nm filter set.
as §2, §3, §4, §5, §6

[11] = test system: SNU475 cells; assay: Hollow fiber assay (HFA) model of AR-SV HCC; format: in vivo; settings: BID PO one week; niclosamide 75, valine–niclosamide 106.1, valine–compound #7 87.3, compound #7 62.9 mg/kg; nude mice
Source text: The hollow fiber procedures were based upon those developed by Hollingshead et al. with technical consultation kindly provided by Drs. Joanna Burdette and Dan Lantvit (University of Illinois Chicago, Chicago, IL, USA). […] In order to utilize a PO dosing approach with the HFA, we extended the traditional HFA timeline to establish angiogenesis, as noted in the literature. […] Hollow fibers (KrosFlo Implant Membranes, M138615, Repligen, Waltham, MA, USA) were filled with 3 × 10^6 SNU475 cells/mL per length and heat-sealed into 2 cm lengths on Day −1. On Day 0, three fibers were implanted into 20-week-old male outbred homozygous athymic nude mice (Foxn1^nu/Foxn1^nu, The Jackson Laboratory, Bar Harbor, ME, USA) subcutaneously parallel to the spine. Following a 14-day waiting period to allow for angiogenesis around the fibers, treatment was initiated. […] On Day 21, mice were euthanized and hollow fibers were explanted. The MTT assay was performed according to the KrosFlo Implant Membrane protocol utilizing Thiazolyl Blue Tetrazolium Bromide (M2128, MilliporeSigma, Burlington, MA, USA).

[12] = Plasma stability, human plasma; format: in vitro ADME
Procedure: (§7) Samples were taken at 0, 30, 60, 120, 180, and 360 min to quantitate the disappearance of the valine conjugates and appearance of a cleaved parent. The matrix stability assay in plasma and the quantitative analysis of samples by UV-VIS HPLC were performed according to the standard protocol at Charles River Laboratories, Inc. (Wilmington, MA, USA).

[13] = Plasma stability, murine plasma; format: in vitro ADME, mouse
Procedure: as §7

[14] = IV, 2 mg/kg (valine conjugates 2 mg/kg EQV)
[15] = IV, 2 mg/kg (valine conjugates 2 mg/kg EQV), non-compartmental analysis
[16] = PO, 40 mg/kg (valine conjugates 40 mg/kg EQV)
[17] = male, C57BL/6, mouse, plasma, iv, 2 mg/kg, IV, 2 mg/kg (valine conjugates 2 mg/kg EQV), analyte = dosed compound, non-compartmental analysis, read-out: AUCall, Geo Mean
[18] = male, C57BL/6, mouse, plasma, iv, 2 mg/kg, IV, 2 mg/kg (valine conjugates 2 mg/kg EQV), read-out: Cmax, Geo Mean
[19] = male, C57BL/6, mouse, plasma, po, 40 mg/kg, PO, 40 mg/kg (valine conjugates 40 mg/kg EQV), analyte = dosed compound, non-compartmental analysis, read-out: AUCall, Geo Mean
[20] = male, C57BL/6, mouse, plasma, po, 40 mg/kg, PO, 40 mg/kg (valine conjugates 40 mg/kg EQV), read-out: Cmax, Geo Mean
[21] = male, C57BL/6, mouse, plasma, IV, 2 mg/kg (valine conjugates 2 mg/kg EQV), read-out: Tmax, Geo Mean
[22] = male, C57BL/6, mouse, plasma, PO, 40 mg/kg (valine conjugates 40 mg/kg EQV), read-out: Tmax, Geo Mean
[23] = male, C57BL/6, mouse, plasma, single IV dose, 2 mg/kg or molar equivalent, read-out: Systemic clearance following an IV dose (converted)
[24] = male, C57BL/6, mouse, in vivo, iv, 2 mg/kg
[25] = male, C57BL/6, mouse, in vivo, po, 40 mg/kg

Row | SMILES | IC50 [1] | HL_Lambda_z, Geo Mean [2, 14] | IV: Clobs, Geo Mean [2, 15] | HL_Lambda_z, Geo Mean [2, 16] | PO: Cl_Fobs, Geo Mean [2, 16] | AUC [2, 17] | Cmax [2, 18] | AUC [2, 19] | Cmax [2, 20] | Tmax [2, 21] | Tmax [2, 22] | clearance [2, 23] | IC50 ([3]; Hepatocyte, 72 h) | IC50 [4] | IC50 ([5]; Homo sapiens, HepG2, 72 h) | Decrease of AR protein levels compared to enzalutamide and sorafenib [6] | IC50 [7] | IC50 ([4]; Homo sapiens, SNU-475, 72 h) | Cell viability within hollow fibers (MTT assay) [11] | also measured
1 | O=C(Nc1ccc(C(F)(F)F)cc1)c1cc(Cl)ccc1O [compound #11] | 580 nM | 0.96 h | 0.03 L/h | 2.68 h | 0.35 L/h | 5.06 µM·h | 11.3 µM | 7.98 µM·h | 6.08 µM | 4.8 min | 25.2 min | 0.5 mL/min | 9.5 µM | 7200 nM | 1900 nM | more effectively decrease AR protein levels | 560 nM |  |  | AUC ([2]; male, C57BL/6, mouse, plasma, po, 40 mg/kg, single PO dose, 40 mg/kg or molar equivalent, analyte = dosed compound, read-out: AUCall following an oral dose): 7.98 µM·h; IC50 ([3]; listed as Compound #11): 9.47 µM; IC50 ([4]; listed as Compound #11): 890 nM; IC50 ([5]; listed as Compound #11): 1860 nM
2 | O=C(Nc1ccc([N+](=O)[O-])cc1Cl)c1cc(Cl)ccc1O [Niclosamide, niclosamide, reference compound] | 250 nM |  |  |  |  |  |  |  |  |  |  |  | 7.2 µM | 1330 nM | 600 nM |  | 370 nM | 1300 nM | no differences in cell viability | Plasma niclosamide concentration 4 h after oral administration [8]: roughly 0.10 µM; Cell viability at 48 h [9]: not impacted; SNU475 invasion [10]: decreased invasion; Expected plasma levels for up to 8 h post-dose ([2]; C57BL/6, mouse, in vivo): approximately 0.2 µM; PO: Cl_Fobs, Geo Mean ([2]; male, C57BL/6, mouse, in vivo): 0.78 L/h; Tmax [2, 24]: 4.8 min; clearance [2, 24]: 1.33 mL/min; Cmax ([2]; male, C57BL/6, mouse, in vivo, iv, 2 mg/kg, Cmax, Geo Mean): 6.03 µM; AUCall of parent following an oral dose of its valine conjugate [2, 25]: 0.8 µM·h; Tmax [2, 25]: 25.2 min; AUC ([2]; male, C57BL/6, mouse, in vivo, po, 40 mg/kg, AUCall following an oral dose of the unconjugated compound): 3.25 µM·h; Cmax ([2]; male, C57BL/6, mouse, in vivo, po, 40 mg/kg, Cmax following an oral dose of the unconjugated compound): 1.65 µM; Cmax ([2]; male, C57BL/6, mouse, in vivo, po, 40 mg/kg, Cmax, Geo Mean): 1.65 µM; IC50 [3]: 7.16 µM
3 | CC(C)[C@H](N)C(=O)OCCOCn1cnc2c(=O)[nH]c(N)nc21 [valacyclovir] |  |  |  |  |  |  |  |  |  |  |  |  |  |  |  |  |  |  |  | Formation of the cleaved parent ([12]; 360 min): readily detectable acyclovir; Percentage of pro-drug remaining intact ([12]; 6 h (360 min)): 66.4%; Formation of the cleaved parent ([13]; 360 min): readily detectable acyclovir; Percentage of pro-drug remaining intact ([13]; 6 h (360 min)): 37.7%
4 | O=C(Nc1ccc(C(F)(F)F)cc1Cl)c1cc(Cl)ccc1O [compound #7] | 280 nM | 4.85 h | 0.04 L/h | 3.58 h | 0.21 L/h | 3.7 µM·h | 6.98 µM | 13 µM·h | 5.79 µM | 4.8 min | 15 min | 0.667 mL/min | > 30 µM | 6600 nM | 450 nM | more effectively decrease AR protein levels | 310 nM | 4000 nM | no differences in cell viability | Expected plasma levels for up to 8 h post-dose ([2]; linearly scaled from PK data, BID 75 mg/kg niclosamide, 105.7 mg/kg valine–niclosamide, 87.3 mg/kg valine–compound #7, 62.9 mg/kg compound #7): 0.86 µM; AUC ([2]; male, C57BL/6, mouse, plasma, po, 40 mg/kg, PO 40 mg/kg of the parent compound, read-out: AUCall following an oral dose of the unconjugated compound): 13 µM·h; Cmax ([2]; male, C57BL/6, mouse, plasma, po, 40 mg/kg, PO 40 mg/kg of the parent compound, read-out: Cmax following an oral dose of the unconjugated compound): 5.78 µM
